{"source": "patent US20240009151A1", "about": "“FORMULATIONS OF AZOBENZENE PHOTOREACTIVE COMPOUNDS” (BAYON THERAPEUTICS, INC., priority 2020, published 2024)", "key": {"[1]": {"test_system": "retinal ganglion cells (RGCs) from rd1 retina", "experiment": "multielectrode array (MEA) electrophysiology of isolated rd1 retinas, light response index (LRI)", "format": "cell-based, mouse", "protocol": "Isolated rd1 retinas were treated with formulations of 100 μM Compound 1 and increasing concentrations of SBE-CD, from 300 μM to 34000 μM. Light responsivity was measured using multielectrode array (MEA) electrophysiology. […] To quantify the degree of light-responsivity for each recorded cell, the normalized relative difference in observed spike frequencies with and without light stimulus was defined as the light response index (LRI): […]"}, "RGCs of rd1 retina": {"test_system": "RGCs of rd1 retina", "experiment": "single in vivo injection, time course of photosensitization of RGCs (spike rasters, LRI)", "design": "species or system mouse", "conditions": "100 μM Compound 1 and 1200 μM SBE-CD, observed up to 28 days post-injection", "excerpt": "FIG. 3e is a scatter plot correlating the strength of light responses in RGCs and the abundance of Compound 1 in retinal tissue."}, "[2]": {"test_system": "RGCs of rd1-GCaMP6f retina", "experiment": "2-photon live calcium imaging of isolated rd1-GCaMP6f retina, fraction of light-responsive cells", "format": "cell-based, mouse", "conditions": "100 μM Compound 1; lower stoichiometry of SBE-CD (300 μM vs 1200 μM), synaptic blockers", "protocol": "To better understand how Compound 1 was photosensitizing RGCs, an rd1 mouse line was generated expressing the genetically encoded calcium indicator GCalVIP6f under control of Synapsin-1 to label all neurons for 2-photon live imaging. Isolated retina from these mice were then treated with 100 uM Compound 1 and either 300 uM or 1200 uM SBE-CD and imaged in the presence of synaptic blockers. The latter concentration was chosen to increase the amount of available cyclodextrin around to potentiate the photosensitization while not completely quenching it. Due to the spectral overlap of Compound 1 absorbance with GCaMP6fref, an interline stimulus module was developed for the 2-photon microscope. […]\nTo determine which neurons were responding to light, collected movies were cross correlated to the stimulus periods using an autocorrelation estimation. […] These resulting correlated micrographs were then used to quantify the number of light-responsive cells. […]\nThe total number of cells were counted from a max Z-projection the same movies and used to determine the relative fraction of light-responsive cells per Compound 1 formulation. […] The activity was also rastered using the recorded ΔF/F of all neurons (FIG. 2e)."}}}
{"smiles": "CCN(Cc1ccccc1)c1ccc(/N=N/c2ccc(NC(=O)C[N+](CC)(CC)CC)cc2)cc1", "note": "[Compound 1]", "values": [{"measurement": "dependence of LRI on the amount of SBE-CD used", "setting": "[1]; 100 μM Compound 1, SBE-CD from 300 μM to 34000 μM", "result": "dose-response"}, {"measurement": "light response of RGCs (MEA)", "setting": "[1]; 100 μM Compound 1 with 300 μM SBE-CD (minimal amount)", "result": "strongest light-responses"}, {"measurement": "light response of RGCs (MEA)", "setting": "[1]; 100 μM Compound 1 with 34000 μM SBE-CD (excess)", "result": "nearly eliminated any light response"}, {"measurement": "photosensitization of the cells (LRI histograms)", "setting": "[1]; excess of SBE-CD, compared to untreated rd1 tissue", "result": "very weakly"}, {"measurement": "number of light-responding RGCs (LRI histograms)", "setting": "[1]; minimal amount of SBE-CD", "result": "greatly increased"}, {"measurement": "duration of photosensitization of RGCs", "setting": "RGCs of rd1 retina", "result": "prolongs photosensitization"}, {"measurement": "number of RGCs that were light responsive (fraction of light-responding cells)", "setting": "[2]", "result": "greater number of RGCs that were light responsive"}]}
